In patent EP4813985A1, “PREPARATION OF QUINAZOLINONE DERIVATIVE AS KINASE INHIBITOR, AND USE THEREOF” (Xizang Haisco Pharmaceutical Co., Ltd., priority 2023, dated 2025):

Test system: A375 cells
Assay: A375 cell proliferation inhibition test
Assay type: cell-based
Settings: Homo sapiens, A-375; Inhibitory activities of compounds on A375 cells, 72 h; read-out: IC50/nM
Method: A375 cells (ATCC, CRL-1619) were cultured in DMEM complete medium (+10% FBS) in a CO2 incubator at 37°C for 48 h. The cells were trypsinised and counted, and then the density was adjusted to 1.67 × 10^4 cells/mL. 90 µL (1500 cells) of cells were inoculated into each well of a 96-well transparent bottom plate, and the plate was transferred to a CO2 incubator and the cells were cultured at 37°C overnight. After the cells were incubated overnight, 10 µL of the diluted compound (final concentration starting from 10 µM, 3-fold dilution, 11 concentrations) was added to each well using a multi-channel pipette. The […] control was a serum-free medium containing DMSO. After mixing evenly, the cells were placed in a CO2 incubator at 37°C for 72 h. After the incubation, the CellCounting-Lite®2.0 kit detection solution (Vazyme, DD1101-03) was taken out and returned to room temperature. 100 µL of CellCounting-Lite2.0 detection solution was added to each well, the plate was sealed with a sealing film, and the plate was placed on a shaker for shaking for 15 min (the whole process should be kept away from light). The Luminescence module of the microplate reader (BMG LRBTECH) was used to detect the fluorescence signal value LUM of each well. The formula Inhibition rate% = ((LUM Solvent−LUM Compound)/(LUM Solvent))∗100% [formula] was used to calculate the inhibition rate of the compound. The Graphpad software log(inhibitor) vs. response -- Variable slope (four parameters) equation was used to perform fitting analysis and calculate the IC50value of the sample. The ordinate of the data is the percentage of inhibition rate, and the abscissa is the logarithm of the sample concentration (Log10).

| Structure (SMILES) | IC50 |
| --- | --- |
| N#Cc1c(NS(=O)(=O)N2CC(=CC(F)(F)F)C2)ccc(F)c1Oc1ccc2ncn(CC(F)F)c(=O)c2c1 [Compound 25] | 10 to 50 nM |
| N#Cc1c(NS(=O)(=O)N2CC(=CF)C2)ccc(F)c1Oc1ccc2ncn(CC(F)F)c(=O)c2c1 [Compound 11] | ≤ 10 nM |
| C=C1CC(Cn2cnc3ccc(Oc4c(F)ccc(NS(=O)(=O)N5CC6(CCC6)C5)c4C#N)cc3c2=O)C1 [Compound 9] | 10 to 50 nM |

The next lines start with the values.

| IC50 | Structure (SMILES) |
| --- | --- |
| 10 to 50 nM | CN(C1CC(=C(F)F)C1)S(=O)(=O)Nc1ccc(F)c(Oc2ccc3ncn(CC(F)F)c(=O)c3c2)c1C#N (stereo not shown) [Compound 12] |
| ≤ 10 nM | C=C1CN(S(=O)(=O)Nc2ccc(F)c(Oc3ccc4ncn(CC(F)F)c(=O)c4c3)c2C#N)CC1F (stereo not shown) [Compound 21] |

Test system: not listed separately
Assay: Pharmacokinetic test in mice
Assay type: in vivo, ICR mice
Settings: mouse, iv, plasma, i.v. (2.5 mg/kg)
Method: 3.1 Experimental animals: Male ICR mice, 20-25 g, 6 mice/compound, purchased from Chengdu Dossy Experimental Animals Co., Ltd.
3.2 Experimental design: On the day of the experiment, the ICR mice were randomly grouped according to their body weights. The animals were fasted with water available for 12-14 h one day before the administration, and were fed 4 h after the administration. Table 3.1 Administration information
vehicle for intravenous administration: 5% DMA + 5% Solutol + 90% Saline; vehicle for intragastric administration: 0.5% MC
Before and after administration, 0.06 mL of blood was taken from the orbit under isoflurane anaesthesia and placed in an EDTAK2 centrifuge tube. The tube was centrifuged at 5000 rpm at 4°C for 10 min, and plasma was collected. The blood sampling time points for both the intravenous administration group and intragastric administration group were 0 min, 5 min, 15 min, 30 min, 1 h, 2 h, 4 h, 7 h, 24 h, and 48 h. Before analysis and detection, all samples were stored at -80°C, and the samples were quantitatively analysed by LC-MS/MS. Table 3.2 Pharmacokinetic parameters of test compounds in plasma of mice

| Structure (SMILES) | AUC(0-t) | clearance | half-life |
| --- | --- | --- | --- |
| N#Cc1c(NS(=O)(=O)N2CC(=CF)C2)ccc(F)c1Oc1ccc2ncn(CC(F)F)c(=O)c2c1 [Compound 11] | 245 µg·h/mL | 0.163 mL/min/kg | 11.1 h |

Same assay, conditions: mouse, iv, plasma, i.v. (2.5 mg/kg), read-out: Vdss

| Structure (SMILES) | Vd |
| --- | --- |
| N#Cc1c(NS(=O)(=O)N2CC(=CF)C2)ccc(F)c1Oc1ccc2ncn(CC(F)F)c(=O)c2c1 [Compound 11] | 0.123 L/kg |

Same assay, conditions: mouse, plasma, po, i.g. (10 mg/kg)

| Structure (SMILES) | bioavailability |
| --- | --- |
| N#Cc1c(NS(=O)(=O)N2CC(=CF)C2)ccc(F)c1Oc1ccc2ncn(CC(F)F)c(=O)c2c1 [Compound 11] | 98.1% |

Same assay, conditions: mouse, po, plasma, i.g. (10 mg/kg)

| Structure (SMILES) | AUC(0-t) | half-life |
| --- | --- | --- |
| N#Cc1c(NS(=O)(=O)N2CC(=CF)C2)ccc(F)c1Oc1ccc2ncn(CC(F)F)c(=O)c2c1 [Compound 11] | 962 µg·h/mL | 8.81 h |

Test system: not listed separately
Assay: Pharmacokinetic test in mice
Assay type: in vivo, ICR mice
Settings: i.g. (10 mg/kg), relative to Control compound 1

| Structure (SMILES) | Fold change in brain-blood ratio relative to control compound |
| --- | --- |
| N#Cc1c(NS(=O)(=O)N2CC(=CF)C2)ccc(F)c1Oc1ccc2ncn(CC(F)F)c(=O)c2c1 [Compound 11] | 6.1 |
